The text below walks through data of a compilation of properties of binary mixtures.

A short description of this series: xn = mol fraction of the nth substance listed.

As to `OCC(F)(F)F` + COP(=O)([O-])OC.Cn1cc[n+](C)c1, the viscosity was 6.5 mPa·s (298.15 K, 101 kPa, x2 = 0.1815); 4.6 mPa·s (313.15 K, 101 kPa, x2 = 0.1815); 24.5 mPa·s (313.15 K, 101 kPa, x2 = 0.4904); 70.5 mPa·s (313.15 K, 101 kPa, x2 = 0.803); 3.1 mPa·s (333.15 K, 101 kPa, x2 = 0.1815); 12.8 mPa·s (333.15 K, 101 kPa, x2 = 0.4904).
As to `CC[N+](CC)(CC)CC.[Cl-]` + O, the electrical conductivity (323 K, 100 kPa, x1 = 0.2) was found to be 4.1 S/m.
In the case of `CCCCCCCCCC(=O)O` + CCCC[N+](CCCC)(CCCC)CCCC.[Cl-], the viscosity is, setting by setting: (298.15 K, 100 kPa, x2 = 0.333) 372 mPa·s; (328.15 K, 100 kPa, x2 = 0.333) 73.2 mPa·s; (358.15 K, 100 kPa, x2 = 0.333) 22.2 mPa·s.
For `CCCCCCC[N+](CCCCCCC)(CCCCCCC)CCCCCCC.[Br-]` + CCCCCCCCCC(=O)O, the viscosity (318.15 K, 100 kPa, x1 = 0.333) came to 205 mPa·s.
Regarding `CCCC[n+]1ccn(C)c1.[Cl-]` + OCCO, the electrical conductivity (303.15 K, 100 kPa, x1 = 0.333) came to 0.966 S/m and the electrical conductivity (303.15 K, 100 kPa, x1 = 0.5) was found to be 1.06 S/m.
On to `[Cl][Al]([Cl])[Cl]` + CCCC[n+]1ccn(C)c1.[Cl-], for which the electrical conductivity is, setting by setting: (306.15 K, 101 kPa, x2 = 0.5) 1.29 S/m; (306.15 K, 101 kPa, x2 = 0.556) 0.603 S/m; (306.15 K, 101 kPa, x2 = 0.588) 0.373 S/m.
With `CC[n+]1ccn(C)c1.O=S(=O)([N-]S(=O)(=O)C(F)(F)F)C(F)(F)F` + O, the viscosity is listed as 18.2 mPa·s (297.55 K, 101 kPa, x1 = 0.722); 21.9 mPa·s (297.55 K, 101 kPa, x1 = 0.8); 28.9 mPa·s (297.55 K, 101 kPa, x1 = 0.941); 36.3 mPa·s (297.55 K, 101 kPa, x1 = 1).
Take `O=c1cc[nH]cc1` + CCCC[n+]1ccn(C)c1.[Cl-]: the viscosity turned out to be 302 mPa·s (293.15 K, 100 kPa, x1 = 0.333) and 261 mPa·s (293.15 K, 100 kPa, x1 = 0.5).
`CCCCC[N+](CCCCC)(CCCCC)CCCCC.[Br-]` + CCCCCCCCCC(=O)O returned a viscosity (318.15 K, 100 kPa, x1 = 0.333) of 178 mPa·s.
As to `[Cl][Al]([Cl])[Cl]` + CC[n+]1ccn(C)c1.[Cl-], the speed of sound (298.15 K, 100 kPa, x2 = 0.38) is given as 1411 m/s; the speed of sound (303.15 K, 100 kPa, x2 = 0.38) is 1404.5 m/s; the speed of sound (313.15 K, 100 kPa, x2 = 0.38) came out at 1391.8 m/s; the speed of sound (318.15 K, 100 kPa, x2 = 0.38) was found to be 1385.6 m/s. The electrical conductivity is 2.49 S/m (303.15 K, 101 kPa, x1 = 0.5); 2.12 S/m (303.15 K, 101 kPa, x1 = 0.57); 1.91 S/m (303.15 K, 101 kPa, x1 = 0.6); 1.63 S/m (303.15 K, 101 kPa, x1 = 0.67); 2.66 S/m (306.15 K, 101 kPa, x2 = 0.5); 0.982 S/m (306.15 K, 101 kPa, x2 = 0.588). Further, the electrical conductivity (306.15 K, 101 kPa, x2 = 0.625) amounted to 0.663 S/m.
`CC[N+](CC)(CC)CCCS(=O)(=O)O.F[B-](F)(F)F` + O gave an electrical conductivity (298 K, 101 kPa, x1 = 0.0002) of 0.475 S/m; an electrical conductivity (298 K, 101 kPa, x1 = 0.0004) of 0.658 S/m; an electrical conductivity (298 K, 101 kPa, x1 = 0.001) of 0.921 S/m; an electrical conductivity (298 K, 101 kPa, x1 = 0.0016) of 1.45 S/m; an electrical conductivity (298 K, 101 kPa, x1 = 0.004) of 2.04 S/m; an electrical conductivity (298 K, 101 kPa, x1 = 0.006) of 2.14 S/m. The electrical conductivity reads like this: (298 K, 101 kPa, x1 = 0.008) 2.28 S/m; (298 K, 101 kPa, x1 = 0.01) 2.32 S/m.
In the case of `C=CC[n+]1ccn(C)c1.O=S(=O)([N-]S(=O)(=O)C(F)(F)F)C(F)(F)F` + CCCO, the viscosity is, setting by setting: (298.15 K, 100 kPa, x1 = 0.1) 3.31 mPa·s; (298.15 K, 100 kPa, x1 = 0.3) 6.61 mPa·s; (298.15 K, 100 kPa, x1 = 0.4) 8.51 mPa·s; (298.15 K, 100 kPa, x1 = 0.6) 13.42 mPa·s; (298.15 K, 100 kPa, x1 = 1) 34.3 mPa·s.
The compound `CCCCCCCCCC[n+]1ccn(C)c1.O=S(=O)([N-]S(=O)(=O)C(F)(F)F)C(F)(F)F` + O returned a viscosity (293.15 K, 101 kPa, x2 = 0.204) of 105 mPa·s. The electrical conductivity (295.15 K, 101 kPa, x2 = 0.204) is 0.15 S/m.
On to `O=C[C@H](O)[C@@H](O)[C@H](O)[C@H](O)CO` + CC[n+]1ccn(C)c1.[Cl-], for which the viscosity (373 K, 100 kPa, x1 = 0.0082) is reported as 47 mPa·s; the viscosity (373 K, 100 kPa, x1 = 0.0829) is recorded as 82 mPa·s; the viscosity (373 K, 100 kPa, x1 = 0.1256) was found to be 96 mPa·s.
In the case of `CCCCn1cc[n+](C)c1.O=S(=O)([N-]S(=O)(=O)C(F)(F)F)c1ccc[cH-]1.[Fe+2].c1cc[cH-]c1` + CCCC[n+]1ccn(C)c1.O=S(=O)([N-]S(=O)(=O)C(F)(F)F)C(F)(F)F, the viscosity runs as follows: (298.15 K, 100 kPa, x2 = 0.461) 1226.1 mPa·s; (298.15 K, 100 kPa, x2 = 0.56) 542.8 mPa·s; (298.15 K, 100 kPa, x2 = 0.661) 295.4 mPa·s; (298.15 K, 100 kPa, x2 = 0.839) 108.5 mPa·s; (298.15 K, 100 kPa, x2 = 0.92) 73.3 mPa·s.
Turning to `CCn1cc[nH+]c1.O=S(=O)([N-]S(=O)(=O)C(F)(F)F)C(F)(F)F` + O, the viscosity is, setting by setting: (297.55 K, 101 kPa, x1 = 0.359) 11.2 mPa·s; (297.55 K, 101 kPa, x1 = 0.667) 24.1 mPa·s; (297.55 K, 101 kPa, x1 = 0.8) 32.7 mPa·s; (297.55 K, 101 kPa, x1 = 0.941) 50.8 mPa·s; (297.55 K, 101 kPa, x1 = 1) 57.1 mPa·s.
Regarding `CCCC[P+](CCCC)(CCCC)CCCC.F[B-](F)(F)F` + C1COCO1, the speed of sound (298.15 K, 100 kPa, x1 = 0.002) is given as 1341.9 m/s; the speed of sound (298.15 K, 100 kPa, x1 = 0.0052) was determined as 1400.4 m/s; the speed of sound (298.15 K, 100 kPa, x1 = 0.0073) is recorded as 1474.1 m/s.
On to `C[N+](C)(C)CCCl.[Cl-]` + OCC(O)CO, for which the viscosity (318.15 K, 100 kPa, x1 = 0.333) worked out at 161 mPa·s.
`c1c[nH]cn1` + CC[n+]1ccn(C)c1.[Cl-]: the viscosity (298.2 K, 100 kPa, x2 = 0.333) was determined as 47.5 mPa·s and the viscosity (298.2 K, 100 kPa, x2 = 0.667) was 198 mPa·s.
In turn, `CCCC[n+]1ccn(C)c1.F[B-](F)(F)F` + CO yielded an electrical conductivity (298.1 K, 101 kPa, x1 = 0.0155) of 0.884 S/m and an electrical conductivity (298.1 K, 101 kPa, x1 = 0.0244) of 1.16 S/m.
For the compound `CCCC[P+](CC)(CCCC)CCCC.[Br-]` + OCCOCCO, the viscosity is, setting by setting: (303.15 K, 101 kPa, x1 = 0.333) 77 mPa·s; (313.15 K, 101 kPa, x1 = 0.333) 48.93 mPa·s; (323.15 K, 101 kPa, x1 = 0.333) 32.91 mPa·s; (343.15 K, 101 kPa, x1 = 0.333) 16.88 mPa·s.
`CCCCCCCC/C=C\CCCCCCCC(=O)O` + CC[N+](CC)(CC)CC.[Cl-] returned a viscosity (298 K, 100 kPa, x2 = 0.25) of 202.2 mPa·s; a viscosity (303.2 K, 100 kPa, x2 = 0.25) of 156.7 mPa·s; a viscosity (333.2 K, 100 kPa, x2 = 0.25) of 41.7 mPa·s.
As to `CCCC[P+](CCCC)(CCCC)CCCC.[Br-]` + OCCO, the viscosity is, setting by setting: (298.15 K, 101.3 kPa, x1 = 0.333) 93.4 mPa·s; (303.15 K, 101.3 kPa, x1 = 0.333) 72.4 mPa·s; (308.15 K, 101.3 kPa, x1 = 0.333) 56.9 mPa·s; (313.15 K, 101.3 kPa, x1 = 0.333) 45.3 mPa·s; (318.15 K, 101.3 kPa, x1 = 0.333) 36.6 mPa·s.
`CC(CC(C)(C)C)CP(=O)([O-])CC(C)CC(C)(C)C.CCCCCCCCCCCCCC[P+](CCCCCC)(CCCCCC)CCCCCC` + O: the viscosity stood at 133 mPa·s (298.15 K, 100 kPa, x1 = 0.0942); 128 mPa·s (298.15 K, 100 kPa, x1 = 0.1083); 119.5 mPa·s (303.15 K, 100 kPa, x2 = 0.8862).
For `ClCCl` + CCCC[n+]1ccn(C)c1.O=S(=O)([N-]S(=O)(=O)C(F)(F)F)C(F)(F)F, the electrical conductivity is, setting by setting: (296.35 K, 100 kPa, x2 = 0.0271) 0.64 S/m; (296.35 K, 100 kPa, x2 = 0.039) 0.79 S/m; (296.35 K, 100 kPa, x2 = 0.0623) 1.1 S/m; (296.35 K, 100 kPa, x2 = 0.1129) 1.32 S/m; (296.35 K, 100 kPa, x2 = 0.2144) 1.58 S/m.
